The record followed here is patent US12441726B2, “Compounds and uses thereof” (Foghorn Therapeutics Inc., priority 2020, dated 2025).

What is called IC50 is the concentration needed to halve the response being measured.

Where only a bound is given, the exact number is not on record here.

BRG-1, sequence (P51532 whole entry): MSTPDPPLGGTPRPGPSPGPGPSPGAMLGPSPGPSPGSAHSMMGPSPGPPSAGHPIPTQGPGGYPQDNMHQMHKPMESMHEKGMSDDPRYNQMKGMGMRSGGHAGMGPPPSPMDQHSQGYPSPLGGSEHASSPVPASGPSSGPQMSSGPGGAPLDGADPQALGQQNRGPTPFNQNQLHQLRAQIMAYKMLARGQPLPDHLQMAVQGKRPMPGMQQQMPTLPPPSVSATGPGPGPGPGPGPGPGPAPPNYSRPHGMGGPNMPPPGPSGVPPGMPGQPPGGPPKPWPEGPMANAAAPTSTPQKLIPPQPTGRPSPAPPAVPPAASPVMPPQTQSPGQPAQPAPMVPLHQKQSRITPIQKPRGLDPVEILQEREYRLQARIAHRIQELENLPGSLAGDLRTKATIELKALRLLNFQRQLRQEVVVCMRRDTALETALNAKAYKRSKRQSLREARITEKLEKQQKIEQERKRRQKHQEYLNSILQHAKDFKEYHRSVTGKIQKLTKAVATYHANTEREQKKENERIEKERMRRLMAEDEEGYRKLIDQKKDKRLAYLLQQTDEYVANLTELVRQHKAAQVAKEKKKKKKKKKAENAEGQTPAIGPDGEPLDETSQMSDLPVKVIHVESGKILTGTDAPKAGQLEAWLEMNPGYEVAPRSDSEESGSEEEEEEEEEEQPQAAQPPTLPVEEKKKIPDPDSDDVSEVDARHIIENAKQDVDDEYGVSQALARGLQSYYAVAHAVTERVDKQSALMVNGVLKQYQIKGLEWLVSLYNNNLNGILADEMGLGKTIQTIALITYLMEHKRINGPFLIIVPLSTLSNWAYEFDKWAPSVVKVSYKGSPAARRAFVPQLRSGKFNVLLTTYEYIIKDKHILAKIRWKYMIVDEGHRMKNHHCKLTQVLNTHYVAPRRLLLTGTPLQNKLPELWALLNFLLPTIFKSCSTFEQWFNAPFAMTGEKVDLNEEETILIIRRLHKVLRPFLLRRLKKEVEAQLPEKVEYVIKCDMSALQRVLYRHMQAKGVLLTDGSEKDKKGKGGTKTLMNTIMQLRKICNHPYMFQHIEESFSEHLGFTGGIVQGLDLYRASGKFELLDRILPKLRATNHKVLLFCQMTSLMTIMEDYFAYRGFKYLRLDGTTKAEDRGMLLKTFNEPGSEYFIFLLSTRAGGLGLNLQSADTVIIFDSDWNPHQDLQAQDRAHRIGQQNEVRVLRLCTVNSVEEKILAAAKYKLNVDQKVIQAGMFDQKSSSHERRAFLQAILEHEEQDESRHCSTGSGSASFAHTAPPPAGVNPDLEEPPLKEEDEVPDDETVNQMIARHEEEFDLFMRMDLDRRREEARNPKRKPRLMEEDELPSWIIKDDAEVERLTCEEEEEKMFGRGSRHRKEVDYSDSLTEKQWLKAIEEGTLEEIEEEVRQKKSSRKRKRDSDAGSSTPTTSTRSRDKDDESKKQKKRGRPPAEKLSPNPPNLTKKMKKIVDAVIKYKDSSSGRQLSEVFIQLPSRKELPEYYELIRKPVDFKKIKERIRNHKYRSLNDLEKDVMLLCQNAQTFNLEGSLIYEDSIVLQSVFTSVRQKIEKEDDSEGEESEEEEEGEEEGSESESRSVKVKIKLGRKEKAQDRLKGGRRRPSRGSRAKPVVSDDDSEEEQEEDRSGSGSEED

For the first assay, the target named is BRM (Homo sapiens, UniProt P51531). Kind of assay: ATPase catalytic activity assay (ADP-Glo), BRM. Particulars: 30 nM BRM, 400 μM ATP. Background: ADP-Glo first removes unused ATP, then detects ADP through luciferase.
BRM, sequence (P51531 whole entry): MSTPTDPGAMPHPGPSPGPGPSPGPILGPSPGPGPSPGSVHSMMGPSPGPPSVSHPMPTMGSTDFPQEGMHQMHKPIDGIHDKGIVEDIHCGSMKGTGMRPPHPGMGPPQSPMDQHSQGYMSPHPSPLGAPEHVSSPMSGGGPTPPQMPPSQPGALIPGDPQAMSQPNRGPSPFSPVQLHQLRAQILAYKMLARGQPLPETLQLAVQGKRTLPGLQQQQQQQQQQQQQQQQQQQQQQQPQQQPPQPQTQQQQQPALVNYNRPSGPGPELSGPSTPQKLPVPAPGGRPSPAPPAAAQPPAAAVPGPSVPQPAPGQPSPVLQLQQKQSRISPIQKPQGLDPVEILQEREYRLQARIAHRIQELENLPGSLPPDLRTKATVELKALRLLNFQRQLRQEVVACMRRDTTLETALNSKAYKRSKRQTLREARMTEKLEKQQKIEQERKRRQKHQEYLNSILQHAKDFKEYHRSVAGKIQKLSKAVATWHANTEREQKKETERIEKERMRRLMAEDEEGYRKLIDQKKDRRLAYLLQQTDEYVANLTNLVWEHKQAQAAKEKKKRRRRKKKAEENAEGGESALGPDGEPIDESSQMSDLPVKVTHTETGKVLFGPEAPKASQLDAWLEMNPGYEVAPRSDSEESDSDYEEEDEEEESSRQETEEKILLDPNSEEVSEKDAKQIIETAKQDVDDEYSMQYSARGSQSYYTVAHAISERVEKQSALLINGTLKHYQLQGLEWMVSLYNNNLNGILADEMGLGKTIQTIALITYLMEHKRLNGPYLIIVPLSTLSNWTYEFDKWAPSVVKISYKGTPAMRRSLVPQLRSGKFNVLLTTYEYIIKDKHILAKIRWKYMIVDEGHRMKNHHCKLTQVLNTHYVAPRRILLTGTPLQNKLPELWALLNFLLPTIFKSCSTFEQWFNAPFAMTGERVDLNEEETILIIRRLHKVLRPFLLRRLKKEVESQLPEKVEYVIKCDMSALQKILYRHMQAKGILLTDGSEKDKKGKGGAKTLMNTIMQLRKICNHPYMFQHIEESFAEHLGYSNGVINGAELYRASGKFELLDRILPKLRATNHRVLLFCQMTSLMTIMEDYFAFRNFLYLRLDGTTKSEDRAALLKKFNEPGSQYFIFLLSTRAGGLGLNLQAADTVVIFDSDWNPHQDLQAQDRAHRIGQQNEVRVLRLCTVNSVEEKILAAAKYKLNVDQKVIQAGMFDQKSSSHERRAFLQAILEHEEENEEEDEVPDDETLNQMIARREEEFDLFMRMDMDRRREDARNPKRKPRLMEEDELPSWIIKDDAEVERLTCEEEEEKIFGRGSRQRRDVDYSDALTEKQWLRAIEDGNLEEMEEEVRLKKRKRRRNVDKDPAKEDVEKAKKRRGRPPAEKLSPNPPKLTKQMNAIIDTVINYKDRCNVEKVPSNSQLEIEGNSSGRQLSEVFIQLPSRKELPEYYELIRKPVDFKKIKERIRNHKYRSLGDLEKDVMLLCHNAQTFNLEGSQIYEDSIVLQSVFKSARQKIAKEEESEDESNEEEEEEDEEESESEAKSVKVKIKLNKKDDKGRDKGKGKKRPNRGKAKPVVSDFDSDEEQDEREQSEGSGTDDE
Experimental: The ATPase catalytic activity of BRM or BRG-1 was measured by an in vitro biochemical assay using ADP-Glo™ (Promega, V9102). The ADP-Glo™ kinase assay is performed in two steps once the reaction is complete. The first step is to deplete any unconsumed ATP in the reaction. The second step is to convert the reaction product ADP to ATP, which will be utilized by the luciferase to generate luminesce and be detected by a luminescence reader, such as Envision.
Then following addition of 5 μL of ADP-Glo™ Reagent provided in the kit, the reaction incubates at room temperature for 40 minutes. Then 10 μL of Kinase Detection Reagent provided in the kit is added to convert ADP to ATP, and the reaction incubates at room temperature for 60 minutes. Finally, luminescence measurement is collected with a plate-reading luminometer, such as Envision.
With `Cc1nn(C2COC2)cc1-c1ccc2cnc(CNC(=O)c3ccc4c(c3)[C@](C)(C#N)COC4)cc2n1` [Compound 188], the “BRM Max % Inhibition” value was found to be 93%.

Consider `COC(=O)c1cccc(-c2ccc3cnc(CNC(=O)c4ccc5c(c4)[C@](C)(C#N)COC5)cc3n2)c1` [Compound 93], for which the “BRM Max % Inhibition” value stood at 99%.

`COc1nn(C)cc1-c1ccc2nnc(CNC(=O)c3ccc4c(c3)[C@](C)(C#N)COC4)cc2c1` [Compound 329]: the “BRM Max % Inhibition” value was 100%.

As for `Cc1cc(-c2ccc3cnc(CNC(=O)c4ccc5c(c4)[C@](C)(C#N)COC5)cc3n2)n(C)n1` [Compound 501], the “BRM Max % Inhibition” value stood at 85%.

Consider `O=C(NCc1cc2nc(-c3cncc(C4CC4)n3)ccc2cn1)c1cnc2c(c1)[C@@](F)(C(F)F)COC2` [Compound 229], for which the “BRM Max % Inhibition” value turned out to be 100%.

As to `Cn1ncc2c1CN(c1ccc3cnc(CNC(=O)c4ccc5c(c4)[C@](C)(C#N)COC5)cc3n1)CC2` [Compound 457], the “BRM Max % Inhibition” value is 95%.

With `C[C@@]1(C#N)COCc2ccc(C(=O)NCc3cc4nc(-c5cnn6ccccc56)ccc4cn3)cc21` [Compound 493], the “BRM Max % Inhibition” value is recorded as 96%.

For the compound `CN1Cc2ccc(-c3ccc4cnc(CNC(=O)c5ccc6c(c5)[C@](C)(C#N)COC6)cc4n3)cc2C1=O` [Compound 485], the “BRM Max % Inhibition” value stood at 93%.

As to `COc1cc(C2COC2)ccc1-c1ccc2cnc(CNC(=O)c3ccc4c(c3)[C@](C)(C#N)COC4)cc2n1` [Compound 175], the “BRM Max % Inhibition” value was 97%.

With `C[C@@]1(C#N)COCc2ccc(C(=O)NCc3cc4cc(-c5ccnc(N6CCC6)n5)ccc4nn3)cc21` [Compound 336], the “BRM Max % Inhibition” value worked out at 99%.

With `C[C@@]1(C#N)COCc2ccc(C(=O)NCc3cc4nc(-c5cncc(N6CCCC6)n5)ccc4cn3)cc21` [Compound 415], the “BRM Max % Inhibition” value turned out to be 99%.

For `C[C@@]1(F)COCc2ccc(C(=O)NCc3cc4nc(-c5cccc(N6CCCC6=O)n5)cnc4cn3)cc21` [Compound 143], the “BRM Max % Inhibition” value was 103%.

As to `C[C@@]1(C#N)COCc2ccc(C(=O)NCc3cc([C@H]4C[C@H](c5ccccc5)C4)ccn3)cc21` [Compound 18], the “BRM Max % Inhibition” value turned out to be 93%.

The same assay, now with this note: BRM ATPase: IC50 (uM), 30 nM BRM, 400 μM ATP.
As for `Cc1nn(C2COC2)cc1-c1ccc2cnc(CNC(=O)c3ccc4c(c3)[C@](C)(C#N)COC4)cc2n1` [Compound 188], the IC50 is 0.1 to 0.5 µM.

`COC(=O)c1cccc(-c2ccc3cnc(CNC(=O)c4ccc5c(c4)[C@](C)(C#N)COC5)cc3n2)c1` [Compound 93] had an IC50 of under 0.1 µM.

For `COc1nn(C)cc1-c1ccc2nnc(CNC(=O)c3ccc4c(c3)[C@](C)(C#N)COC4)cc2c1` [Compound 329], the half-inhibitory concentration (IC50) is under 0.1 µM.

`Cc1cc(-c2ccc3cnc(CNC(=O)c4ccc5c(c4)[C@](C)(C#N)COC5)cc3n2)n(C)n1` [Compound 501] had an IC50 of 0.1 to 0.5 µM.

As to `O=C(NCc1cc2nc(-c3cncc(C4CC4)n3)ccc2cn1)c1cnc2c(c1)[C@@](F)(C(F)F)COC2` [Compound 229], the IC50 was under 0.1 µM.

On to `Cn1ncc2c1CN(c1ccc3cnc(CNC(=O)c4ccc5c(c4)[C@](C)(C#N)COC5)cc3n1)CC2` [Compound 457], for which the 50% inhibitory concentration (IC50) lay in the range of 0.1 to 0.5 µM.

As for `C[C@@]1(C#N)COCc2ccc(C(=O)NCc3cc4nc(-c5cnn6ccccc56)ccc4cn3)cc21` [Compound 493], the IC50 lay within 0.1 to 0.5 µM.

As to `CN1Cc2ccc(-c3ccc4cnc(CNC(=O)c5ccc6c(c5)[C@](C)(C#N)COC6)cc4n3)cc2C1=O` [Compound 485], the IC50 is 0.1 to 0.5 µM.

For the compound `COc1cc(C2COC2)ccc1-c1ccc2cnc(CNC(=O)c3ccc4c(c3)[C@](C)(C#N)COC4)cc2n1` [Compound 175], the IC50 is under 0.1 µM.

Compound `C[C@@]1(C#N)COCc2ccc(C(=O)NCc3cc4cc(-c5ccnc(N6CCC6)n5)ccc4nn3)cc21` [Compound 336] registered an IC50 of under 0.1 µM.

In turn, `C[C@@]1(C#N)COCc2ccc(C(=O)NCc3cc4nc(-c5cncc(N6CCCC6)n5)ccc4cn3)cc21` [Compound 415] had an IC50 of under 0.1 µM.

In the case of `C[C@@]1(F)COCc2ccc(C(=O)NCc3cc4nc(-c5cccc(N6CCCC6=O)n5)cnc4cn3)cc21` [Compound 143], the IC50 is under 0.1 µM.

Take `C[C@@]1(C#N)COCc2ccc(C(=O)NCc3cc([C@H]4C[C@H](c5ccccc5)C4)ccn3)cc21` [Compound 18]: the IC50 is under 0.1 µM.

Another assay addresses BRG-1 (Homo sapiens, UniProt P51532). Description: ATPase catalytic activity assay (ADP-Glo), BRG-1.
Conditions: not given
Take `Cc1nn(C2COC2)cc1-c1ccc2cnc(CNC(=O)c3ccc4c(c3)[C@](C)(C#N)COC4)cc2n1` [Compound 188]: the IC50 is over 1000 nM.

`COC(=O)c1cccc(-c2ccc3cnc(CNC(=O)c4ccc5c(c4)[C@](C)(C#N)COC5)cc3n2)c1` [Compound 93] displayed an IC50 of 100 to 500 nM.

On to `COc1nn(C)cc1-c1ccc2nnc(CNC(=O)c3ccc4c(c3)[C@](C)(C#N)COC4)cc2c1` [Compound 329], for which the IC50 lay within 100 to 500 nM.

For the compound `Cc1cc(-c2ccc3cnc(CNC(=O)c4ccc5c(c4)[C@](C)(C#N)COC5)cc3n2)n(C)n1` [Compound 501], the IC50 is over 1000 nM.

As for `O=C(NCc1cc2nc(-c3cncc(C4CC4)n3)ccc2cn1)c1cnc2c(c1)[C@@](F)(C(F)F)COC2` [Compound 229], the IC50 lay within 100 to 500 nM.

`Cn1ncc2c1CN(c1ccc3cnc(CNC(=O)c4ccc5c(c4)[C@](C)(C#N)COC5)cc3n1)CC2` [Compound 457] had an IC50 of 500 to 1000 nM.

`C[C@@]1(C#N)COCc2ccc(C(=O)NCc3cc4nc(-c5cnn6ccccc56)ccc4cn3)cc21` [Compound 493] showed an IC50 of 500 to 1000 nM.

With `CN1Cc2ccc(-c3ccc4cnc(CNC(=O)c5ccc6c(c5)[C@](C)(C#N)COC6)cc4n3)cc2C1=O` [Compound 485], the IC50 was in the range of 500 to 1000 nM.

In the case of `COc1cc(C2COC2)ccc1-c1ccc2cnc(CNC(=O)c3ccc4c(c3)[C@](C)(C#N)COC4)cc2n1` [Compound 175], the IC50 is 100 to 500 nM.

With `C[C@@]1(C#N)COCc2ccc(C(=O)NCc3cc4cc(-c5ccnc(N6CCC6)n5)ccc4nn3)cc21` [Compound 336], the half-inhibitory concentration (IC50) was in the range of 100 to 500 nM.

`C[C@@]1(C#N)COCc2ccc(C(=O)NCc3cc4nc(-c5cncc(N6CCCC6)n5)ccc4cn3)cc21` [Compound 415] returned an IC50 of under 100 nM.

In turn, `C[C@@]1(F)COCc2ccc(C(=O)NCc3cc4nc(-c5cccc(N6CCCC6=O)n5)cnc4cn3)cc21` [Compound 143] showed a half-maximal inhibitory concentration (IC50) of 100 to 500 nM.

`C[C@@]1(C#N)COCc2ccc(C(=O)NCc3cc([C@H]4C[C@H](c5ccccc5)C4)ccn3)cc21` [Compound 18] gave a half-maximal inhibitory concentration (IC50) of over 1000 nM.

The same assay, now with this note: 1 h, read-out: BRG1 Max % Inhibition, ADP-Glo, 30 nM BRG-1, 400 μM ATP.
For `Cc1nn(C2COC2)cc1-c1ccc2cnc(CNC(=O)c3ccc4c(c3)[C@](C)(C#N)COC4)cc2n1` [Compound 188], the Emax came out at 41%.

On to `COC(=O)c1cccc(-c2ccc3cnc(CNC(=O)c4ccc5c(c4)[C@](C)(C#N)COC5)cc3n2)c1` [Compound 93], for which the Emax turned out to be 93%.

Take `COc1nn(C)cc1-c1ccc2nnc(CNC(=O)c3ccc4c(c3)[C@](C)(C#N)COC4)cc2c1` [Compound 329]: the Emax was 86%.

Regarding `Cc1cc(-c2ccc3cnc(CNC(=O)c4ccc5c(c4)[C@](C)(C#N)COC5)cc3n2)n(C)n1` [Compound 501], the Emax was determined as 47%.

Consider `O=C(NCc1cc2nc(-c3cncc(C4CC4)n3)ccc2cn1)c1cnc2c(c1)[C@@](F)(C(F)F)COC2` [Compound 229], for which the Emax came to 90%.

Take `Cn1ncc2c1CN(c1ccc3cnc(CNC(=O)c4ccc5c(c4)[C@](C)(C#N)COC5)cc3n1)CC2` [Compound 457]: the Emax is 61%.

For `C[C@@]1(C#N)COCc2ccc(C(=O)NCc3cc4nc(-c5cnn6ccccc56)ccc4cn3)cc21` [Compound 493], the Emax is 68%.

Turning to `CN1Cc2ccc(-c3ccc4cnc(CNC(=O)c5ccc6c(c5)[C@](C)(C#N)COC6)cc4n3)cc2C1=O` [Compound 485], the Emax was 82%.

Regarding `COc1cc(C2COC2)ccc1-c1ccc2cnc(CNC(=O)c3ccc4c(c3)[C@](C)(C#N)COC4)cc2n1` [Compound 175], the Emax is 86%.

For the compound `C[C@@]1(C#N)COCc2ccc(C(=O)NCc3cc4cc(-c5ccnc(N6CCC6)n5)ccc4nn3)cc21` [Compound 336], the Emax is 92%.

For `C[C@@]1(C#N)COCc2ccc(C(=O)NCc3cc4nc(-c5cncc(N6CCCC6)n5)ccc4cn3)cc21` [Compound 415], the Emax is 95%.

Consider `C[C@@]1(F)COCc2ccc(C(=O)NCc3cc4nc(-c5cccc(N6CCCC6=O)n5)cnc4cn3)cc21` [Compound 143], for which the Emax amounted to 89%.

Take `C[C@@]1(C#N)COCc2ccc(C(=O)NCc3cc([C@H]4C[C@H](c5ccccc5)C4)ccn3)cc21` [Compound 18]: the Emax is 87%.
